The results in this text go back to patent EP0714896A1, “INDOL DERIVATIVES USEFUL FOR THE TREATMENT OF MIGRAINE, COMPOSITION AND UTILIZATION” (VITA-INVEST, S.A., priority 1994, dated 1995).

Usually EC50 stands for the concentration that produces a half-maximal response. Low readings indicate an effect from little substance, high ones a need for much substance.

The subject of the first test is isolated rabbit saphenous vein. In words: 5HT1-like agonist activity on the isolated rabbit saphenous vein preparation (contraction). Format: cell-based. Particulars: Oryctolagus cuniculus; pD2 = -log EC50 of contraction; after phenoxybenzamine 0.3 µM and pargyline 500 µM; 37°C. The method, then: 5HT1-like agonist activity of the synthesis products on the isolated rabbit saphenous vein preparation.
This study was conducted using the method described by Van Heuven-Nolsen (Van Heuven-Nolsen et al., Eur. J. Pharmacol. 191 (3); 375-382; 1990) and male New Zealand rabbits were used. The animals were sacrificed by exposure to excess CO₂. Thereafter the saphenous vein of each rear extremity was excised. 5 mm long segments were obtained from each vein. Each segment was placed, using appropriate supports, in an organ bath containing a Krebs-Henseleit solution aerated with carbogen and thermostatically controlled to 37°C. These conditions were held for 25 minutes, after which the preparation was subjected to a traction of 2 g at the same time as phenoxybenzamine (0.3 µM) and pargyline (500 µM) were added to the organ bath over 30 minutes. The phenoxybenzamine is an irreversible antagonist of the α-adrenoreceptors, whilst pargyline is a selective monoaminooxidase (MAO) inhibitor. At the end of these 30 minutes, successive washings were performed with Krebs solution every 7 minutes, for a further 30 minutes to remove the excess phenoxybenzamine. Thereafter, the preparation was subjected to an increasing contraction by the addition of cumulative doses of sumatriptan (10⁻⁹ at 3x10⁻⁵ M), followed by washing and allowing to rest for 30 minutes until the segment returns to its basal tension. At the end of this time, a further cumulative curve is plotted with the product to be studied. The pD2 (-log EC₅₀, the product concentration producing 50% of its maximum contraction) and the Emax (maximum contraction achieved) were calculated.
With `CNc1ncnc(N2CCN(CCCc3c[nH]c4ccc(CS(=O)(=O)NC)cc34)CC2)c1OC` [Example 64, C-(3-{3-[4-(6-methylamino-5-methoxy-pyrimidin-4-yl)-piperazin-1-yl]-propyl}-1H-indol-5-yl)-N-methyl-methanesulfonamide], a half-maximal effect (EC50) was put at 105 nM.

`CNS(=O)(=O)Cc1ccc2[nH]cc(CCN3CCN(c4ncncc4OC)CC3)c2c1` [Example 85, C-(3-{2-[4-(5-methoxy-pyrimidin-4-yl)-piperazin-1-yl]-ethyl}-1H-indol-5-yl)-N-methyl-methanesulfonamide] gave an EC50 of 2630 nM. On to `COc1ccc2[nH]cc(CCCN3CCN(c4ncnc(OC)c4OC)CC3)c2c1` [Example 80, 3-{3-[4-(5,6-dimethoxy-pyrimidin-4-yl)-piperazin-1-yl]-propyl}-5-methoxy-1H-indole], for which a half-maximal response (EC50) required 1.38 nM. Same read-out and setting: as for `COc1cncnc1N1CCN(CC=Cc2c[nH]c3ccc(F)cc23)CC1` [Example 83, 5-fluoro-3-{3-[4-(5-methoxy-pyrimidin-4-yl)-piperazin-1-yl]-propenyl}-1H-indole], the figure is 724 nM; as for `NCCc1c[nH]c2ccc(O)cc12` [SEROTONIN, reference compound], 49 nM; as for `CNS(=O)(=O)Cc1ccc2[nH]cc(CCCN3CCN(c4ncncc4-c4ccccc4)CC3)c2c1` [Example 87, C-(3-{3-[4-(5-phenyl-pyrimidin-4-yl)-piperazin-1-yl]-propyl}-1H-indol-5-yl)-N-methylmethanesulfonamide], 282 nM. On the same count and under the same terms, as for `CNS(=O)(=O)Cc1ccc2[nH]cc(CCCN3CCN(c4ncnc(OC)c4OC)CC3)c2c1` [Example 51, C-(3-{3-[4-(5,6-dimethoxy-pyrimidin-4-yl)-piperazin-1-yl]-propyl}-1H-indol-5-yl)-N-methyl-methanesulfonamide], the figure is 7.24 nM; as for `CNS(=O)(=O)Cc1ccc2[nH]cc(CCCN(C)CCN(C)c3ncnc(OC)c3OC)c2c1` [Example 62, C-{3-[3-({2-[(5,6-dimethoxy-pyrimidin-4-yl)-methyl-amino]-ethyl}-methyl-amino)-propyl]-1H-indol-5-yl}-N-methyl-methanesulfonamide], 120 nM; as for `CNS(=O)(=O)Cc1ccc2[nH]cc(CCCNC3CCN(c4ncnc(OC)c4OC)C3)c2c1` (stereo not shown) [Example 56, C-(3-{3-[1-(5,6-dimethoxy-pyrimidin-4-yl)-pyrrolidin-3-ylamino]-propyl}-1H-indol-5-yl)-N-methyl-methanesulfonamide], 457 nM. The same measure, in the same setting: in the case of `CNS(=O)(=O)Cc1ccc2[nH]cc(CCN(C)C)c2c1` [SUMATRIPTAN, sumatriptan, reference compound] it was 347 nM; in that of `COc1cnc(C)nc1N1CCN(CCCc2c[nH]c3ccc(F)cc23)CC1` [Example 70, 5-fluoro-3-{3-[4-(2-methyl-5-methoxy-pyrimidin-4-yl)-piperazin-1-yl]-propyl}-1H-indole], 324 nM.

Staying with this test, now noted: pD2 = -log EC50 of contraction; after phenoxybenzamine 0.3 µM and pargyline 500 µM; 37°C.
Regarding `CNS(=O)(=O)Cc1ccc2[nH]cc(CCCNCCN(C)c3ncncc3OC)c2c1` [Example 59, C-[3-(3-{2-[5-methoxy-pyrimidin-4-yl)-methylaminolethylamino}-propyl)-1H-indol-5-yl]-N-methyl-methanesulfonamide.], the “RABBIT SAPHENOUS VEIN pD2” value was 6.64±0.24. Regarding “C-(3-{3-[3-(5,6-dimethoxy-pyrimidin-4-yl)-piperazin-1-yl]-1-methyl-1H-indol-5-yl)-N-methyl-methanesulfonamide [Example 78]”, the “RABBIT SAPHENOUS VEIN pD2” value came out at 6.80±0.56.
